Experimental data: ChEMBL document CHEMBL2086249, “Use of small-molecule crystal structures to address solubility in a novel series of G protein coupled receptor 119 agonists: optimization of a lead and in vivo evaluation” (J Med Chem, 2012)

Experiments:
[1] = physchem; settings: pH 7.4
[2] = Intrinsic clearance in human liver microsomes; format: ADME, Microsome; settings: read-out: CLH

Compound | logD ([1]; octanol/phosphate buffer) | microsomal CLint [2] [µL/min/mg] | logD ([1]; octanol/water)
CC(C)(C)OC(=O)N1CCN(c2ncc(-c3ccc(OCC#N)cc3)cn2)CC1 | 4.2 | 259 | 
CC(C)(C)OC(=O)N1CCN(c2ncc(OCc3ccc(S(C)(=O)=O)cc3)cn2)CC1 | 3.2 | 47 | 
CC(C)(C)OC(=O)N1CCN(c2ccc(OCc3ccc(S(C)(=O)=O)cc3)nn2)CC1 | 2.8 |  | 
CC(C)(C)OC(=O)N1CCN(c2cnc(OCc3ccc(S(C)(=O)=O)cc3)cn2)CC1 |  |  | 3.4
CC(C)(C)OC(=O)N1CCN(c2ccc(OCc3ccc(S(C)(=O)=O)cc3)cn2)CC1 | 3.2 |  | 
CC(C)(C)OC(=O)N1CCN(c2ccc(OCc3ccc(S(C)(=O)=O)cc3)cc2)CC1 |  |  | 3.9
CC(C)(C)OC(=O)N1CCN(c2ncc(OCc3ccc(S(C)(=O)=O)cc3)nn2)CC1 | 2.9 |  | 
CC(C)(C)OC(=O)N1CCC(c2ncc(OCc3ccc(S(C)(=O)=O)cc3)cn2)CC1 |  |  | 2.8
C[C@H]1CN(C(=O)OC(C)(C)C)CCN1c1ncc(OCc2ccc(S(C)(=O)=O)cc2)cn1 | 3.5 |  | 
C[C@@H]1CN(C(=O)OC(C)(C)C)CCN1c1ncc(OCc2ccc(S(C)(=O)=O)cc2)cn1 | 3.5 |  | 
C[C@@H]1CN(c2ncc(OCc3ccc(S(C)(=O)=O)cc3)cn2)CCN1C(=O)OC(C)(C)C | > 3.7 |  | 
C[C@H]1CN(c2ncc(OCc3ccc(S(C)(=O)=O)cc3)cn2)CCN1C(=O)OC(C)(C)C | > 3.6 |  | 
C[C@@H]1CN(C(=O)OC(C)(C)C)C[C@H](C)N1c1ncc(OCc2ccc(S(C)(=O)=O)cc2)cn1 | > 3.6 |  | 
C[C@@H]1CN(c2ncc(OCc3ccc(S(C)(=O)=O)cc3)cn2)[C@@H](C)CN1C(=O)OC(C)(C)C | > 3.7 |  | 
CC(C)(C)OC(=O)N1C[C@@H]2C[C@H]1CN2c1ncc(OCc2ccc(S(C)(=O)=O)cc2)cn1 | 2.8 |  | 
CC(C)(C)OC(=O)N1C[C@@H]2CC[C@H]1CN2c1ncc(OCc2ccc(S(C)(=O)=O)cc2)cn1 | 3.4 |  | 
C[C@@H]1CN(C(=O)OC(C)(C)C)CCN1c1ncc(OCC2CCN(S(C)(=O)=O)CC2)cn1 | 3.5 |  | 
C[C@@H]1CN(C(=O)OC(C)(C)C)CCN1c1ncc(OCc2ccc(S(=O)(=O)N(C)C)cc2)cn1 | > 4.3 |  | 
C[C@@H]1CN(C(=O)OC(C)(C)C)CCN1c1ncc(OCc2ccc(C#N)cc2)cn1 | > 3.6 |  | 
